Values of other authors as cited in US8716354B2 (priority 2003, dated 2014).

Conditions: intravenous injection of a therapeutic dose

CC(C)c1cccc(C(C)C)c1O [propofol, 2,6-diisopropylphenol]
Time to hypnosis from the start of injection: ≤ 40 s
